Laboratory results from article PMC10380194, “Conferring High IAA Productivity on Low-IAA-Producing Organisms with PonAAS2, an Aromatic Aldehyde Synthase of a Galling Sawfly, and Identification of Its Inhibitor” (Insects, 2023).

Experiments:
PonAAS1 = biological target: T1, PonAAS1; test: enzyme inhibition of 5-HTrp→serotonin conversion, dose-response; type: biochemical, Pontania sp.
T1 construct: recombinant, fusion protein with trigger factor (pCOLD TF)

PonAAS2 = biological target: T2, PonAAS2; test: enzyme inhibition of Trp→IAAld conversion, Lineweaver-Burk kinetics (IC50 […]); type: biochemical, Pontania sp.
T2 construct: recombinant, fusion protein with trigger factor (pCOLD TF)

Which IC50 (PonAAS1) does the source give for `Oc1ccccc1-c1nc(-c2ccc3c(c2)CCO3)n[nH]1` [HTS10550, 2-[3-(2,3-dihydro-1-benzofuran-5-yl)-1H-1,2,4-triazol-5-yl]phenol] here?
The IC50 was ~20 µM.

What about the Ki (PonAAS2) of the same compound?
Its Ki is 0.2 µM.
